# In patent US7049461B1, “Treatment of leukemia” (University of Central Florida, priority 2001, dated 2006):
# Key:
# [1] = tested on: human leukemia cancer cells (ATCC JURK); experiment: Cytotoxicity assay: growth inhibition of Jurkat cells (MTS/PMS); assay type: cell-based; details: approximately 48 hours, test concentration not given
# Description: The activity against leukemia cancer cells of the compounds (as earlier reported) was realized by the following procedure which determines the inhibitory effect of test samples on the growth of human leukemia cancer cells (ATCC JURK). The Jurkat cells are grown in RPMI 1640 media+10% Fetal bovine serum+1% Antibiotic/Antimycotic+1% of HEPES Buffer (1M)+1% Sodium Purivate (100 mM)+2.5% D-(+) Glucose Solution for approximately 48 hours at 37° C./5% CO2 […] compound.
# Growth/Non-Growth of the cells (e.g., cell density) is determined using Promega's MTS/PMS assay system. MTS (3-(4,5-dimethylthiazol-2-yl)-5-(3-carboxymethoxyphenyl)-2-(4-sulfophenyl)-2H-tetrazolium, inner salt) is an aqueous compound that is reduced to soluble formazan by the presence of NADH formed by dehydrogenases present within the Jurkat cells. The absorbance of the formazan can be measured at 490 nm and is directly proportional to the number of living cells present in the culture. PMS (Phenazine Methosulfate) is added an electron coupling reagent and greatly increases the rate of reduction. […]
# In order to establish the accuracy of this assay a Positive Control consisting of 50 μM Methotrexate should […] the net absorbance to less than 90% of the Negative Control (Jurkat cells are somewhat resistant to methotrexate) is utilized.
# [2] = Solubility in organic solvents; assay type: physicochemical
# [3] = Stability in solutions; assay type: physicochemical; details: solution heated or stored for a long time; forms OF-12
# [4] = tested on: mice; details: cited from earlier work
smiles,measurement,setting,value
"CCOc1ccc(C(Cl)=CC(=NN=C2c3ccccc3-c3ccccc32)C(=O)OC)cc1 [3F-19, 4-Chloro-4-(4-ethoxy-phenyl)-2-(fluoren-9-ylidene-hydrazono)-but-3-enoic acid methyl ester]",percent activity against human leukemia,[1],100%
"CCOc1ccc(C(=O)CC(O)(NN=C2c3ccccc3-c3ccccc32)C(=O)OC)cc1 (stereo not shown) [OF-13, 4-(4-Ethoxy-phenyl)-2-(N′-fluoren-9-ylidene-hydrazino)-2-hydroxy-4-oxo-butyric acid methyl ester]",percent activity against human leukemia,[1],97%
same,Solubility,"[2]; in DMSO, DMFA, dichloroethane, acetonitrile",highly soluble
same,Solubility,[2]; in hexane,insoluble
same,Stability in solutions,[3],not stable in solutions and decomposes quickly
Nc1ccn([C@@H]2O[C@H](CO)[C@@H](O)[C@@H]2O)c(=O)n1 [cytarabine],toxicity in mice LD50,[4],826 mg/kg
COc1cccc2c1C(=O)c1c(O)c3c(c(O)c1C2=O)C[C@@](O)(C(C)=O)C[C@@H]3O[C@H]1C[C@H](N)[C@H](O)[C@H](C)O1 [daunorubicin],toxicity in mice LD50,[4],26 mg/kg
